# Results reported in patent US4987144A, “1,3-bis(1,2,4-triazol-1-yl)2-(4-trifluoromethylphenyl)propan-2-ol useful for the prevention and/or treatment of deep-seated mycosis” (SS Pharmaceutical Co., Ltd., priority 1989, dated 1991).
# Legend:
# Candida albicans [1] = test: Antimycotic activities of similar compounds in a manner similar to Test 1, oral administration (Referential Test); type: in vivo, Candida albicans (in male ICR mice); conditions: in Mus musculus, 336 h, read-out: T/C; for response vs control in vivo at 40 mg: Dose (mg) 40, oral
# Description: (§1) Male ICR mice of 4 weeks old were used as groups, each consisted of 5 mice. Each mouse was inoculated at caudal vein with 2.8×106^6 cells of Candida albicans. From one hour after the inoculation, each test compound was dissolved in 0.5 mλ of 0.06 N hydrochloric acid which had been added with "0.2% TO-10M" (trade name; product of Nikko Chemicals Co., Ltd.) and was orally administered once a day, four times in total. The mice were observed until the 14th day after the inoculation of the fungus. The average survival days of each group was compared with those of the control group to determine T/C (%). [formula]
# In a manner similar to Test 1, antimycotic activities of each of the test compounds shown below in Table 2 were investigated. As will be readily envisaged from the results, practically no antimycotic activities were observed from the oral administration of those compounds.
# Candida albicans [2] = test: Antimycotic activities: survival of mice inoculated with Candida albicans, oral administration (Test 1); type: in vivo, Candida albicans (in male ICR mice); conditions: for T/C: once a day, four times, average survival days vs control, to 14th day after inoculation
# Description: as §1
# [3] = Measurement of body weight variations (Test 2); type: in vivo, male ICR mice; conditions: for body weight change after administration (in words): group administered with the compound; for body weight: 2.5 mg/Kg
# Acute toxicity, oral = conditions: mouse, in vivo, mice, P.O.
structure (smiles),measurement,setting,value
Oc1c(F)cc(C(O)(Cn2cncn2)Cn2cncn2)cc1F,response vs control in vivo at 40 mg,Candida albicans [1],82%
OC(Cn1cncn1)(Cn1cncn1)c1cc(F)c(OCc2ccccc2)c(F)c1,response vs control in vivo at 40 mg,Candida albicans [1],73%
OC(Cn1cncn1)(Cn1cncn1)c1ccc(F)cc1F [Fluconazole],T/C,Candida albicans [2]; 1.25 mg/kg,143%
same,T/C,Candida albicans [2]; 2.5 mg/kg,379%
same,T/C,Candida albicans [2]; 5 mg/kg,443%
same,body weight change after administration (in words),[3],body weight reductions were observed
CCCOc1cc(F)ccc1C(O)(Cn1cncn1)Cn1cncn1,response vs control in vivo at 40 mg,Candida albicans [1],125%
CC(=O)Nc1ccc(C(O)(Cn2cncn2)Cn2cncn2)c(F)c1,response vs control in vivo at 40 mg,Candida albicans [1],82%
OC(Cn1cncn1)(Cn1cncn1)c1ccc(F)cc1OCc1ccccc1,response vs control in vivo at 40 mg,Candida albicans [1],122%
OC(Cn1cncn1)(Cn1cncn1)c1ccc(F)cc1OCc1ccc(F)cc1,response vs control in vivo at 40 mg,Candida albicans [1],117%
N#Cc1ccc(C(O)(Cn2cncn2)Cn2cncn2)c(F)c1,response vs control in vivo at 40 mg,Candida albicans [1],81%
Oc1cc(F)c(F)cc1C(O)(Cn1cncn1)Cn1cncn1,response vs control in vivo at 40 mg,Candida albicans [1],125%
"OC(Cn1cncn1)(Cn1cncn1)c1ccc(C(F)(F)F)cc1 [Triazole compound (I), 1,3-bis(1,2,4-triazol-l-yl)-2-(4-trifluoromethylphenyl)propan-2-ol]",T/C,Candida albicans [2]; 1.25 mg/kg,186%
same,T/C,Candida albicans [2]; 2.5 mg/kg,385%
same,T/C,Candida albicans [2]; 5 mg/kg,450%
same,apothanasia effects upon oral administration (in words),Candida albicans [2]; compared with fluconazole,greater than fulconazole
same,body weight,[3]; 0 days after administration,21.0 g
same,body weight,[3]; 1 day after administration,20.6 g
same,body weight,[3]; 2 days after administration,21.4 g
same,body weight,[3]; 3 days after administration,22.2 g
same,body weight,[3]; 4 days after administration,23.0 g
same,body weight,[3]; 5 days after administration,23.3 g
same,body weight,[3]; 6 days after administration,23.1 g
same,body weight change after administration (in words),[3],the body weight increased steadily
same,LD50,"Acute toxicity, oral",1200 mg/kg
COc1c(F)cc(C(O)(Cn2cncn2)Cn2cncn2)cc1F,response vs control in vivo at 40 mg,Candida albicans [1],91%
OC(Cn1cncn1)(Cn1cncn1)c1ccc(-c2ccc(F)cc2)cc1,response vs control in vivo at 40 mg,Candida albicans [1],136%
OC(Cn1cncn1)(Cn1cncn1)c1cc(C(F)(F)F)cc(C(F)(F)F)c1,response vs control in vivo at 20 mg,"Candida albicans [1]; Dose (mg) 20, oral",118%
